Like-named read-outs stand apart in the source and are kept apart here.
Tests used:
[1] = Zeta-potential measurement; assay type: physicochemical; settings: for Zeta-pot. / mV: zeta potential of peptide, Fig S15 source data
Outline: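 Surface charge of aggregated peptides: 1 mg/mL solutions in PBS (pH 7.4) incubated 1 d at RT, diluted into 1 mM KCl just before reading. Electrophoretic mobility converted to zeta potential by the Smoluchowski formula; triplicate measurements from two separate experiments averaged.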

[2] = system: HIV-1 infection of TZM-bl cells; assay: HIV-1 infectivity enhancement assay, β-galactosidase luminescence; assay type: cell-based; settings: for Rel-to EFC / n-fold to virus: Fig S8 panels B, D; for Rel-to EFC: infectivity enhancement relative to EF-C; for Log10 Inf. rel. to EF-C: log10 of HIV-1 infection of TZM-bl cells relative to EF-C, Fig S15 source data, asymmetric std dev errors
[3] = assay type: physicochemical; settings: STD prep
[4] = Feb2021, 1.3 µM value relative to virus only (0 µM)
[5] = Feb2021, log10 of infectivity relative to EF-C
[6] = Feb2021, n-fold infectivity relative to EF-C
[7] = Feb2021, unrounded values of the 1.3 µM column
[8] = infectivity n-fold relative to virus alone
[9] = infectivity class (low / medium / high) of each library peptide, main list in c1-c6, same classes repeated in sub-lists of sequences containing the hydrophobicity/charge patterns P+,H0,P+,H0,P0,H0,P0, P+,H0,P0,H0,P0,H0,P0, P+,H0,P0,H0
[10] = Feb2021, Log10 of infectivity relative to EF-C
[11] = Feb2021, figures match the 1.3 µM column
[12] = Feb2021, infectivity relative to virus only
[13] = Feb2021, n-fold enhancement relative to EF-C
[14] = infectivity class (low / medium / high) of the peptide in the sequence-pattern analysis, Fig. S22-A4, class limits not given
[15] = Feb2021 run, infectivity n-fold relative to virus alone
[16] = Feb2021 run, log10 of infectivity relative to EF-C
[17] = Feb2021 run, n-fold infectivity relative to EF-C

Substance	Zeta category ( +1 = if > 4 mV;-1 = if < -4 mV; 0 = -4mV to 4 mV) [1]	Zeta Pot. / mV ([1]; mean, Std Zeta in next column) [mV]	Zeta-pot. / mV [1] [mV]	n-fold to virus (Feb2021) [2, 4]	Log10 of Rel to EFC (Feb2021) [2, 5]	Rel-to EFC (Feb-2021) [2, 6]	Absolute Infectivity / RLU /s (Feb2021) [2, 7] [RLU /s]	Rel-to EFC [2]	n-fold to virus [2, 8]	infectivity [2, 9]	Log10 Inf. rel. to EF-C [2]	TEM: 1= fibrils, 0= aggregates (micelle), 0.5 = aggregates and fibrils, -1 = nothing obersved, STD prep [3]	Zeta category ( +1 = if > 4 mV;-1 = if < -4 mV; 0 = -4mV to 4 mV) ([1]; category from zeta potential)	Log10 of Rel to EFC (Feb2021) [2, 10]	Rel-to EFC (Feb-2021) [2, 13]	infectivity [2, 14]	Zeta Pot. / mV ([1]; mean, Std in separate column) [mV]	n-fold to virus (Feb2021) [2, 15]	Log10 of Rel to EFC (Feb2021) [2, 16]	Rel-to EFC (Feb-2021) [2, 17]	also measured
CQFQFQF [QBL4]	-1 (-1 = if < -4 mV)	-24.8	-24.8	14.84	-0.4519	0.3533	7570	0.3533	14.84	medium	-0.4519	1	–	–	–	–	–	–	–	–	–
KAKAKAQA [TG15]	-1 (-1 = if < -4 mV)	-9.01	-9.01	–	–	0.008711	–	–	–	low	-2.06	0	-1 (-1 = if < -4 mV)	-2.06	0.008711	low	–	–	–	–	Zeta Pot. / mV [1]: -9.01 mV; Absolute Infectivity / RLU /s (Feb2021) [2, 11]: 186.7 RLU /s; n-fold to virus (Feb2021) [2, 12]: 0.366
KAKAQANM [TM152]	0 (0 = -4mV to 4 mV)	-2.62	-2.62	0.3782	–	0.009	496.7	–	–	low	-2.046	0.5	0 (0 = -4mV to 4 mV)	-2.046	0.009	low	-2.62	0.3782	-2.046	0.009	–
KFKQFFNMWQ [JG5]	0 (0 = -4mV to 4 mV)	-3.43	-3.43	–	–	0.08925	–	–	–	low	-1.0494	0	0 (0 = -4mV to 4 mV)	-1.049	0.08925	–	–	–	–	–	Zeta Pot. / mV [1]: -3.43 mV; Absolute Infectivity / RLU /s (Feb2021) [2, 11]: 1000 RLU /s; n-fold to virus (Feb2021) [2, 12]: 3.75
KIKIQINMW [JGB1 /TM85]	1 (+1 = if > 4 mV)	19.7	19.7	–	–	–	–	–	–	high	0.3339	1	1 (+1 = if > 4 mV)	0.3339	2.157	high	19.7	90.64	0.3339	2.157	–
KWKWQW [KB3]	1 (+1 = if > 4 mV)	7.55	7.55	0.6105	-1.838	0.01453	386.7	0.01453	0.6105	low	-1.838	0	–	–	–	–	–	–	–	–	–
MKIKIQINM [TM41]	1 (+1 = if > 4 mV)	9.13	9.13	11.48	-0.5635	0.2732	15000	–	–	medium	-0.5635	1	–	–	–	–	–	–	–	–	–
MKIKIQINMWQ [TM52]	1 (+1 = if > 4 mV)	10.8	10.8	17.6	–	0.4188	12786.66667	–	–	medium	-0.378	1	1 (+1 = if > 4 mV)	-0.378	0.4188	–	10.8	17.6	-0.378	0.4188	–
QCKAKAQA [CK24]	0 (0 = -4mV to 4 mV)	0.674	0.674	1.061	–	0.02526	806.7	0.02526	1.0614	low	-1.598	0.5	0 (0 = -4mV to 4 mV)	-1.598	0.02526	–	0.674	1.061	-1.598	0.02526	–
QCKAKAQANMWQ [CK22]	-1 (-1 = if < -4 mV)	-8.05	-8.05	3.018	–	0.07183	2767	–	–	low	-1.144	0.5	-1 (-1 = if < -4 mV)	-1.144	0.07183	–	-8.05	3.018	-1.144	0.07183	–
